In publication PMC9181543, “Lysosomal Exocytosis of Olivacine on the Way to Explain Drug Resistance in Cancer Cells” (International Journal of Molecular Sciences, 2022):
“And” between values parts separate entries of the source, which are not always exact repeats. Equal values may be shown once. Read-outs that look alike come from different tables or passages of the source.

Experiments:
T24 cell = test system: T24 cell; set-up: method as in PMID 28138703; conditions: T24 cell study; cited from earlier work
MCF-7 cells [1] = test system: MCF-7 cells; set-up: method as in PMID 11755121; conditions: 48 h exposure; cited from earlier work
CCRF/CEM cells = test system: CCRF/CEM cells; set-up: method as in PMID 24898668; conditions: cited from earlier work
MCF-7 cells [2] = test system: MCF-7 cells; set-up: method as in PMID 15896464; conditions: cited from earlier work
Saos-2 cells = test system: Saos-2 cells; set-up: method as in PMID 12881704; conditions: cited from earlier work
NHDF cells = assay: Cell morphology, microscopic observation, NHDF; type: cell-based, human; conditions: NHDF normal cells, 24 h incubation
Description: (§1) Olivacine, similar to ellipticine, is a compound with fluorescent properties. Therefore, by analyzing the intensity of fluorescence over time, it is possible to assess the cellular pharmacokinetics of the compounds. At the same time, cell morphology was also assessed. The cells were seeded into a 96-well plate and cultured for 24 h (37 °C, 5% CO2) for cell adhesion to the surface and regeneration. […] The culture plate was placed under a Juli microscope, and the device with the plate inside was put in the CO2 incubator. Pictures were taken every 15 min for 24 h. We have prepared software that allowed us to measure the fluorescence intensity of the indicated cells. Fluorescence analysis was performed for all images (every 15 min) during a period of rapid change in fluorescence intensity and less often at a later period when it stabilized. Three independent experiments were carried out, always analyzing 50 selected cells.

A549 cells = assay: Cell morphology, microscopic observation, A549; type: cell-based, human; conditions: for cell morphology: 24 h incubation
Description: as §1

[3] = test system: A549, MCF-7, LoVo, LoVo/DX, CCRF/CEM, and NHDF cells; assay: MTT assay, whole cell line panel; type: cell-based; conditions: Homo sapiens, range across all cell lines, read-out: IC50 range over the cell lines
Description: The anticancer activity of tested compounds was assessed on five human cell lines selected from the panel of tumor cell lines recommended by the National Cancer Institute: A495 (lung carcinoma), CCRF/CEM (acute lymphoblastic leukemia), LoVo and LoVo/DX (two types of colorectal: non-resistant and resistant to doxorubicin), and MCF-7 (breast adenocarcinoma). In addition, the NHDF cell line (normal human dermal fibroblasts) was used to estimate cytotoxicity to noncancer cells. The A549, CCRF/CEM, LoVo, LoVo/DX, and MCF-7 cells were obtained from ECACC, and NHDF cells from LONZA, Belgium. The A549 and MCF-7 cells were grown in EMEM medium, CCRF/CEM cells in RPMI-1640, LoVo and LoVo/DX cells in DMEM/F-12, and NHDF cells in DMEM without phenol red. The cells were seeded in […] in the biological assay, as recommended by the National Cancer Institute. All culture media were supplemented with L-glutamine, penicillin, streptomycin, and 10% fetal bovine serum (FBS). […]
An assessment of the mitochondrial cell activity after applying tested compounds was carried out using the test MTT assay, recommended in the ISO 10993-5:2009 standard. […] After 30 min, absorbance at 570 nm in Victor2 microplate reader (PerkinElmer). Cell viability was determined as the IC50 ratio, i.e., the concentration of the compound in which the viability was reduced by half compared with the control.

Row | SMILES | cell cycle effect (T24 cell) | IC50 (MCF-7 cells [1]) [nM] | cell cycle effect (CCRF/CEM cells) | IC50 (MCF-7 cells [2]) [nM] | concentration at which apoptosis was induced (Saos-2 cells) | cell morphology (NHDF cells; 2 μM) | cell morphology (NHDF cells; 5 μM) | cell morphology (NHDF cells; 20 μM) | cell morphology (A549 cells; 2 μM) | cell morphology (A549 cells; 20 μM) | concentration at which growth inhibition is visible (A549 cells; microscopic observation, 24 h) [µM] | IC50 [3] [nM]
1 | Cc1c2ccncc2c(C)c2c1[nH]c1ccccc12 [Ellipticine] | stops the cell cycle in the G2/M phase | 1250 ± 130 | stop the cell cycle in the G0/G1 phase | 1520 | 8 µM and 10 µM |  |  |  |  |  |  | 
2 | Cc1nccc2c(C)c3[nH]c4ccccc4c3cc12 [Olivacine, 1,5-dimethyl-6H-pyrido[4,3-b]carbazole] |  |  |  |  |  | did not negatively affect cell morphology | normal | only a few fibroblast cells have been disintegrated | Cytosol degradation | completely degraded | 2 | 12000 to 26000
